Read-outs that look alike come from different tables or passages of the source.
Key:
Experiment in all cases: KinomeScan kinase panel, single concentration 10 µM
Assay type in all cases: binding
KinomeScan kinase panel [1] = molecular target: T1, KinomeScan kinase panel (Homo sapiens, UniProt O00750); settings: PIK3C2B, 10 µM; read-out: score (%)
T1 construct: purchased DiscoveRx (KinomeScan)

KinomeScan kinase panel [2] = molecular target: T2, KinomeScan kinase panel (Homo sapiens, UniProt O14757); settings: CHEK1, 10 µM
T2 construct: purchased DiscoveRx (KinomeScan)
T2 sequence (O14757 1-476): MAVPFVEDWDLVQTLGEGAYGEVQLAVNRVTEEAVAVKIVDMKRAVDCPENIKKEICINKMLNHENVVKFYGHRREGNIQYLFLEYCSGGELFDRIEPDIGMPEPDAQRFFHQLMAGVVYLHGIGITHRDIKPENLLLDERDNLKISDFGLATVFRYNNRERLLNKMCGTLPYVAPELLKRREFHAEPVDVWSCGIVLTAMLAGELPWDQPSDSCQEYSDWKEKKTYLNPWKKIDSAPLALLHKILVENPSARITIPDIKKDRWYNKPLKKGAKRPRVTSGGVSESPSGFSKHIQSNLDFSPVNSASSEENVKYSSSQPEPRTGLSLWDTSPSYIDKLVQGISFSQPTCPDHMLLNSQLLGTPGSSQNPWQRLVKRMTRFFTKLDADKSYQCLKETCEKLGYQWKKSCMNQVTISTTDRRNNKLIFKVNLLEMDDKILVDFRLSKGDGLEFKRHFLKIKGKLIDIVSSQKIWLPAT

KinomeScan kinase panel [3] = molecular target: T3, KinomeScan kinase panel (Homo sapiens, UniProt P09619); settings: PDGFRB, 10 µM; read-out: score (%)
T3 construct: purchased DiscoveRx (KinomeScan)
T3 sequence (P09619 33-1106): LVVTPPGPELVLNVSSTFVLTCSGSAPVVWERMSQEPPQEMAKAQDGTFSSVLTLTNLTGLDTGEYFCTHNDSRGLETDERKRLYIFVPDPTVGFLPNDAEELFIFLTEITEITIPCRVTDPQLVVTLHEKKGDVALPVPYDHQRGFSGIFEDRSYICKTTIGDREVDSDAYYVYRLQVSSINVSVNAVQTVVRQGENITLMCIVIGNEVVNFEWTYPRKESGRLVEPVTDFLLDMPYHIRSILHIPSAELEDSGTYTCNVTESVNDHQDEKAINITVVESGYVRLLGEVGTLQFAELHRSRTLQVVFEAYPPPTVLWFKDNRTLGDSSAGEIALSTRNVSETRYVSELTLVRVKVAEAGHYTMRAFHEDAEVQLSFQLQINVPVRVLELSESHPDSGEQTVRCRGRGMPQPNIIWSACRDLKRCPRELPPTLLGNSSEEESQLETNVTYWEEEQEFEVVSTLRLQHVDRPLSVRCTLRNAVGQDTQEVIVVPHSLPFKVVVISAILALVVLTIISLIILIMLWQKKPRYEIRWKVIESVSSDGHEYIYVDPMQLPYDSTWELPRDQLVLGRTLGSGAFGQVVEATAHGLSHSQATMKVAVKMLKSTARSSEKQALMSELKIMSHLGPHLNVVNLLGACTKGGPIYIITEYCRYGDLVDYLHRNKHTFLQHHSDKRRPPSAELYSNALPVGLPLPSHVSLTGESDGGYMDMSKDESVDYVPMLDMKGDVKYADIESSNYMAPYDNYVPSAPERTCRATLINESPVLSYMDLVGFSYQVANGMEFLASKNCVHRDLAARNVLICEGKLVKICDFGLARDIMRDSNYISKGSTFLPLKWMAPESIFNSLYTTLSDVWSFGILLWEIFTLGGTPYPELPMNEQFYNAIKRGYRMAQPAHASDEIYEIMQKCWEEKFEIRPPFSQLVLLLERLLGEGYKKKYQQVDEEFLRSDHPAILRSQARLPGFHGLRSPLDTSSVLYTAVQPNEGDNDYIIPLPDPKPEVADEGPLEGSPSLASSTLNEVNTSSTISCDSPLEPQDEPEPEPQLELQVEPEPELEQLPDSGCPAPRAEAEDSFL

KinomeScan kinase panel [4] = molecular target: T4, KinomeScan kinase panel (Homo sapiens, UniProt P12931); settings: 10 µM, read-out: score (%)
T4 construct: purchased DiscoveRx (KinomeScan)
T4 sequence (P12931 whole entry): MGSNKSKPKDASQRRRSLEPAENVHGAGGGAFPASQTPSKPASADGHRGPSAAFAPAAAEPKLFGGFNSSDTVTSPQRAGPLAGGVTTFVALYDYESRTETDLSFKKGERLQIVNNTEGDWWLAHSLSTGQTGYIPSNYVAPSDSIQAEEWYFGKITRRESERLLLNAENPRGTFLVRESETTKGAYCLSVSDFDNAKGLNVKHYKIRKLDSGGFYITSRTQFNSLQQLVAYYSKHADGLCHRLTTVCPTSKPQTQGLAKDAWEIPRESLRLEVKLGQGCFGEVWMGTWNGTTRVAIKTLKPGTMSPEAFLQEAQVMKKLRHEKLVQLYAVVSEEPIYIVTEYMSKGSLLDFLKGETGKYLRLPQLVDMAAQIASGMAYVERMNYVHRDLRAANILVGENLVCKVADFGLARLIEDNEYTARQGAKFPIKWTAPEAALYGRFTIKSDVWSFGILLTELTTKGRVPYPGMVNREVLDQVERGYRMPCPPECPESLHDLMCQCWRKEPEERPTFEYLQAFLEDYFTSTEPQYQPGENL

KinomeScan kinase panel [5] = molecular target: T5, KinomeScan kinase panel (Homo sapiens, UniProt P15056); settings: BRAF, 10 µM; read-out: score (%)
T5 construct: purchased DiscoveRx (KinomeScan)
T5 sequence (P15056 whole entry): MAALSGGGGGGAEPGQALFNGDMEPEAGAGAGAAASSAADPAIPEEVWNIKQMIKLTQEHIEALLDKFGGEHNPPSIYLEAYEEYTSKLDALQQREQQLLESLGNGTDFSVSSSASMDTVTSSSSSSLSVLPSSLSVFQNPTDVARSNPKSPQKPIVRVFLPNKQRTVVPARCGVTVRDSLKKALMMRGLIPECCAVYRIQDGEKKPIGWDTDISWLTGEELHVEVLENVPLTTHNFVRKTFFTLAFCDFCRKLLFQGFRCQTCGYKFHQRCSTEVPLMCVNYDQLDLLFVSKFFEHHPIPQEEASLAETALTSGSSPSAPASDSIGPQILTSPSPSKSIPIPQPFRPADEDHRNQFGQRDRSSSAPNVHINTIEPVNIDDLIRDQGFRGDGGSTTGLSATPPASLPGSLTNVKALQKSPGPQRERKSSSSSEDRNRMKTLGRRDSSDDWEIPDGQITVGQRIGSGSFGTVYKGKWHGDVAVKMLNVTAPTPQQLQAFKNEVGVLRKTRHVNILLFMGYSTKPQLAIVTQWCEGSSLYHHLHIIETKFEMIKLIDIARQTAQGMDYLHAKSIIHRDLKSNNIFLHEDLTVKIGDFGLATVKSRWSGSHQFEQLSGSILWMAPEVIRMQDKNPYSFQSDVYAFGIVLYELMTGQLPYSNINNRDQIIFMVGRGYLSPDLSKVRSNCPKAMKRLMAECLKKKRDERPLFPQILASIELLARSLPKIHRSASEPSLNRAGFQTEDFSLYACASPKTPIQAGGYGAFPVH

KinomeScan kinase panel [6] = molecular target: T6, KinomeScan kinase panel (Homo sapiens, UniProt P16234); settings: PDGFRA, 10 µM; read-out: score (%)
T6 construct: purchased DiscoveRx (KinomeScan)

KinomeScan kinase panel [7] = molecular target: T7, KinomeScan kinase panel (Homo sapiens, UniProt P27037); settings: ACVR2A, 10 µM; read-out: score (%)
T7 construct: purchased DiscoveRx (KinomeScan)

KinomeScan kinase panel [8] = molecular target: T8, KinomeScan kinase panel (Homo sapiens, UniProt P45983); settings: JNK1, 10 µM
T8 construct: purchased DiscoveRx (KinomeScan)

KinomeScan kinase panel [9] = molecular target: T9, KinomeScan kinase panel (Homo sapiens, UniProt P48736); settings: PIK3CG, 10 µM; read-out: score (%)
T9 construct: purchased DiscoveRx (KinomeScan)

KinomeScan kinase panel [10] = molecular target: T10, KinomeScan kinase panel (Homo sapiens, UniProt Q09013); settings: DMPK, 10 µM; read-out: score (%)
T10 construct: purchased DiscoveRx (KinomeScan)
T10 sequence (Q09013 1-629): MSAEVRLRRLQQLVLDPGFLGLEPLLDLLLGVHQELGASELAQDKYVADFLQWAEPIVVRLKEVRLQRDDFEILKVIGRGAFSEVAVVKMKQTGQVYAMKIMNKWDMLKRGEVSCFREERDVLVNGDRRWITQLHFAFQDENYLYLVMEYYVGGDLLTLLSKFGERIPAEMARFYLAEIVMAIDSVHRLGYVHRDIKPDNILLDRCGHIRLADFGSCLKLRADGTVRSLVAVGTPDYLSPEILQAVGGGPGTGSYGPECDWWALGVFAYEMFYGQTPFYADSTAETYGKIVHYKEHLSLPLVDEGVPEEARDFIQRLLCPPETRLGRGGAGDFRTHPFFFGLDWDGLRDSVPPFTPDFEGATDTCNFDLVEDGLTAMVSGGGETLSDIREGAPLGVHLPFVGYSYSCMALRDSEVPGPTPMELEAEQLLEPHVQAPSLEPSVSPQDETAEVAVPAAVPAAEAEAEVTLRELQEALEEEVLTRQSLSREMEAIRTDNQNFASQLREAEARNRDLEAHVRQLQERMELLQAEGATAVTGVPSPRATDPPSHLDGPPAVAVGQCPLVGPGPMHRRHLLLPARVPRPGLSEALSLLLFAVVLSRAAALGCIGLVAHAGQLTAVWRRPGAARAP

KinomeScan kinase panel [11] = molecular target: T11, KinomeScan kinase panel (Homo sapiens, UniProt Q13043); settings: MST1, 10 µM
T11 construct: purchased DiscoveRx (KinomeScan)
T11 sequence (Q13043 1-487): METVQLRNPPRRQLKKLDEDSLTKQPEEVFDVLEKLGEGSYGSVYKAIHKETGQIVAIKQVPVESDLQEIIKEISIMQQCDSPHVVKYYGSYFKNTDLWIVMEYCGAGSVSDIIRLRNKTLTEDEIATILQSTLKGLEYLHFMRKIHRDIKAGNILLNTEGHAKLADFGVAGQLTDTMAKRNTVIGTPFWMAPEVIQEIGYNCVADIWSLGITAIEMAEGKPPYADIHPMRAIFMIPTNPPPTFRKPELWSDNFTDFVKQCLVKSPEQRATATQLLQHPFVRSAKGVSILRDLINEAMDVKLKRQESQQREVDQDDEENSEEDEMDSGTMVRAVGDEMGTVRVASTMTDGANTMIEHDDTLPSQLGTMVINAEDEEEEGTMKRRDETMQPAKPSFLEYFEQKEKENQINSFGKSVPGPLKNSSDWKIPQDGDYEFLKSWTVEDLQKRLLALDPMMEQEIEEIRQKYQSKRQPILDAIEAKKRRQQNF

KinomeScan kinase panel [12] = molecular target: T12, KinomeScan kinase panel (Homo sapiens, UniProt Q16566); settings: CAMK4, 10 µM; read-out: score (%)
T12 construct: purchased DiscoveRx (KinomeScan)
T12 sequence (Q16566 1-473): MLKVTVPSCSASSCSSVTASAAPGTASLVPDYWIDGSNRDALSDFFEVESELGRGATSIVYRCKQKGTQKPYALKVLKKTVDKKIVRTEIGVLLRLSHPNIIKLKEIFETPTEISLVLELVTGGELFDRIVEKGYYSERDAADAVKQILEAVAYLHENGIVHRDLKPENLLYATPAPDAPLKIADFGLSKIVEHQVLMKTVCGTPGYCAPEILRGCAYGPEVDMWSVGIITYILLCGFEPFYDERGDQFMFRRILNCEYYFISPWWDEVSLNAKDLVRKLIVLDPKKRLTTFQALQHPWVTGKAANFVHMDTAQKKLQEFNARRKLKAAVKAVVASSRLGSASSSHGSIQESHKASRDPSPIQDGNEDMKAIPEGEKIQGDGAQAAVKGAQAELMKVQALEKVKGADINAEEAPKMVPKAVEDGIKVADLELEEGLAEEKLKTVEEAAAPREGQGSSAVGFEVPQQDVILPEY

KinomeScan kinase panel [13] = molecular target: T13, KinomeScan kinase panel (Homo sapiens, UniProt Q8N568); settings: DCAMKL2, 10 µM; read-out: score (%)
T13 construct: purchased DiscoveRx (KinomeScan)
T13 sequence (Q8N568 whole entry): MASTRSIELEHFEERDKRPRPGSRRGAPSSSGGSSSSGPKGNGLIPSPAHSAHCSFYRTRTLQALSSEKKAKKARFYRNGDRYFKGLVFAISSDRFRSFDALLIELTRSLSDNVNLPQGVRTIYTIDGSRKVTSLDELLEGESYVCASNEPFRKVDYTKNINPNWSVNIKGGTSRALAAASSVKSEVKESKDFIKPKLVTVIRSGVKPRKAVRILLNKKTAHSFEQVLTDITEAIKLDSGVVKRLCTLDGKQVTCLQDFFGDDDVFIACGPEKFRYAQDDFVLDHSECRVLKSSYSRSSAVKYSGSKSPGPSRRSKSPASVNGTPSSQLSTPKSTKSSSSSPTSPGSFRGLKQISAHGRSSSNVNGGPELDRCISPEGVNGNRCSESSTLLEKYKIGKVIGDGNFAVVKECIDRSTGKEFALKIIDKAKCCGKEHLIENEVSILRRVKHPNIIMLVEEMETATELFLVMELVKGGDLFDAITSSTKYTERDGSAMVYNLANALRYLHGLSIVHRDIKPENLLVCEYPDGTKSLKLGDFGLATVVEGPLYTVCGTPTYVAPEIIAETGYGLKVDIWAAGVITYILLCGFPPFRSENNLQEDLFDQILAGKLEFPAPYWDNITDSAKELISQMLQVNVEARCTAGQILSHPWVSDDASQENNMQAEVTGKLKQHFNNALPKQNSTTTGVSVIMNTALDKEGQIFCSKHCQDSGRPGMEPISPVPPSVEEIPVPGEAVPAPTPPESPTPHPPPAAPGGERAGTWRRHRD

T1 sequence (O00750 whole entry): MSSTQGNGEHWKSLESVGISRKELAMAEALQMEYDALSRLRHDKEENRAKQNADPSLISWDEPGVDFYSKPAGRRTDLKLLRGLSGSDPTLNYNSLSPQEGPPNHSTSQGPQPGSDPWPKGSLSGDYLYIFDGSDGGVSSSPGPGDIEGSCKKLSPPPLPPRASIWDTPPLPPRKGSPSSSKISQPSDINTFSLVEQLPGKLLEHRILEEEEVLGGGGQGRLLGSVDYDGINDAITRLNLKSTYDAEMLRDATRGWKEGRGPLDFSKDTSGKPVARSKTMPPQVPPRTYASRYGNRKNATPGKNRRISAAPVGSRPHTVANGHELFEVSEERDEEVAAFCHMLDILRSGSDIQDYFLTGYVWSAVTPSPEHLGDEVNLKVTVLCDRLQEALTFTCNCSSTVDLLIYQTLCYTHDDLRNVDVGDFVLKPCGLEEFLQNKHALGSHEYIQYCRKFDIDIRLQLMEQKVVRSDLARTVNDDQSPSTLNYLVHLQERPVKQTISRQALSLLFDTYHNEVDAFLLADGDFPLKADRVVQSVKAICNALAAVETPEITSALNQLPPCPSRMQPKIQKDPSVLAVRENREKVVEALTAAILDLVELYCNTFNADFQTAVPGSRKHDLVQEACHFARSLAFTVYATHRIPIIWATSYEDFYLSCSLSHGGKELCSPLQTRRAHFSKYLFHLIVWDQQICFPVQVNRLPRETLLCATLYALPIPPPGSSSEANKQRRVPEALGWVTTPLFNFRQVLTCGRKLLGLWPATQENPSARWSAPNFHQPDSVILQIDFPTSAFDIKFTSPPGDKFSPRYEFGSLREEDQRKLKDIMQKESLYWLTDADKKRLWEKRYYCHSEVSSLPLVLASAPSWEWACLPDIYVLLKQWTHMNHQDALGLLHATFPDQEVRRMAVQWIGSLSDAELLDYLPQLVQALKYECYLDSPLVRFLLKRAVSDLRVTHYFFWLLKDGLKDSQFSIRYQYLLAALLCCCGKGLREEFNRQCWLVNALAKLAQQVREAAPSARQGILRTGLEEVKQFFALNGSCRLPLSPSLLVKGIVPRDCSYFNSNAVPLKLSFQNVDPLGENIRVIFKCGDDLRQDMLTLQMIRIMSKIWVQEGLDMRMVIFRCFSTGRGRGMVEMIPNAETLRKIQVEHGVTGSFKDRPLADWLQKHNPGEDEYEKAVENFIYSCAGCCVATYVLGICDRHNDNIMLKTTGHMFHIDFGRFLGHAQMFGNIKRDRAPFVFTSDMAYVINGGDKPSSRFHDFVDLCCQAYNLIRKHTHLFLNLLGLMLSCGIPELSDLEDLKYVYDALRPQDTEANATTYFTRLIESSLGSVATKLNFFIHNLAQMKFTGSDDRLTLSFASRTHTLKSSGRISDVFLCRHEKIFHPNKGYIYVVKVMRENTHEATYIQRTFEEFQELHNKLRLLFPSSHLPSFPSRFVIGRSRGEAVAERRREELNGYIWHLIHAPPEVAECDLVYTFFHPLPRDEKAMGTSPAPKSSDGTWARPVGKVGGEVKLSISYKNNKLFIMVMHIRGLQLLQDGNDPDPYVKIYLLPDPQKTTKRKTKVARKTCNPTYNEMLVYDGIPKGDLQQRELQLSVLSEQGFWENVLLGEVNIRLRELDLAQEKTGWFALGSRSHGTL

SMILES	remaining binding at 10 µM (KinomeScan kinase panel [1]) [%]	score (%) (KinomeScan kinase panel [2])	remaining binding at 10 µM (KinomeScan kinase panel [3]) [%]	remaining binding at 10 µM (KinomeScan kinase panel [4]; kinase SRC) [%]	remaining binding at 10 µM (KinomeScan kinase panel [5]) [%]	remaining binding at 10 µM (KinomeScan kinase panel [6]) [%]	remaining binding at 10 µM (KinomeScan kinase panel [7]) [%]	score (%) (KinomeScan kinase panel [8])	remaining binding at 10 µM (KinomeScan kinase panel [9]) [%]	remaining binding at 10 µM (KinomeScan kinase panel [10]) [%]	score (%) (KinomeScan kinase panel [11])	remaining binding at 10 µM (KinomeScan kinase panel [12]) [%]	remaining binding at 10 µM (KinomeScan kinase panel [13]) [%]	remaining binding at 10 µM (KinomeScan kinase panel [4]; SRC) [%]
CCN1CCN(Cc2ccc(NC(=O)c3ccc(C)c(NC(=O)c4cncc(-c5cccs5)c4)c3)cc2C(F)(F)F)CC1 [ALW-II-41-27]	> 30	nb (Hits values higher than 30% were considered negative (no binding: nb))	0	0.1	1.8	0	> 30	nb (Hits values higher than 30% were considered negative (no binding: nb))	> 30	> 30	21	> 30	> 30	
CCN1CCN(Cc2ccc(NC(=O)c3ccc(C)c(C#Cc4cccnc4)c3)cc2C(F)(F)F)CC1 [XMD15-44]	100	nb (Hits values higher than 30% were considered negative (no binding: nb))	0	0	0.05	0	> 30	0.55%	100	> 30	23	> 30	> 30	
CCN1CCN(Cc2ccc(NC(=O)c3ccc(C)c(/C=C/c4cnc5[nH]ccc5c4Cl)c3)cc2C(F)(F)F)CC1 [HG-6-63-01, (E)-3-(2-(4-chloro-1H-pyrrolo[2,3-b]pyridin-5-yl)vinyl)-N-(4-((4-ethylpiperazin-1-yl)methyl)-3-(trifluoromethyl)phenyl)-4-methylbenzamide]	> 30	25%	0		1.2	0	> 30	6.6%	> 30	> 30	26	> 30	> 30	0.25

Source: publication PMC4457528, “Identification of Novel Small Molecule Inhibitors of Oncogenic RET Kinase” (PLoS ONE, 2015)
